Data reported in PMC7312458, “The Structural Basis of the Binding of Various Aminopolycarboxylates by the Periplasmic EDTA-Binding Protein EppA from Chelativorans sp. BNC1” (International Journal of Molecular Sciences, 2020).
Several values for one entry are separate records, joined by “and”; a condition that tells them apart may be missing. Equal values may be shown once. Read-outs that look alike come from different tables or passages of the source.

How the values were obtained:
[1] = molecular target: T1, EppA (Chelativorans sp. BNC1, UniProt Q11H97); assay: Isothermal titration calorimetry of wild-type EppA with chelators and metal chelates; type: binding
[2] = molecular target: K470A EppA mutant (Chelativorans sp. BNC1, UniProt Q11H97, K470A); assay: biochemical
Description: (§1) All primers were ordered from Invitrogen (Carlsbad, CA, USA).
(§2) Isothermal calorimetric titrations were performed in a MicroCal iTC200 (Malvern Panalytical Ltd.; Malvern, UK). All titrations were performed at 25 °C and stirred at 750 rpm. […] EppA–ligand binding curves were corrected for heats of dilution by subtracting reference titrations of ligands at the same concentrations into a buffer without EppA. Data were fitted to a single-site model as implemented into the Origin 7 MicroCal Data Analysis software analysis package (Malvern Panalytical Ltd.; Malvern, UK) and then plotted in Excel.

[3] = molecular target: R56A EppA mutant (Chelativorans sp. BNC1, UniProt Q11H97, R56A); assay: biochemical
Description: as §1, §2

[4] = molecular target: R480A EppA mutant (Chelativorans sp. BNC1, UniProt Q11H97, R480A); assay: biochemical
Description: as §1, §2

[5] = molecular target: R74A EppA mutant (Chelativorans sp. BNC1, UniProt Q11H97, R74A); assay: biochemical
Description: as §1, §2

[6] = molecular target: T1, EppA; settings: earlier report; cited from earlier work
[7] = ITC, wild-type EppA, 25 °C, single replicate, n.b. = no binding
[8] = ITC, wild-type EppA, 25 °C, single-site model, single replicate, n.b. = no binding

Sequence of R74A EppA mutant (Q11H97 27-563, stated change not applied): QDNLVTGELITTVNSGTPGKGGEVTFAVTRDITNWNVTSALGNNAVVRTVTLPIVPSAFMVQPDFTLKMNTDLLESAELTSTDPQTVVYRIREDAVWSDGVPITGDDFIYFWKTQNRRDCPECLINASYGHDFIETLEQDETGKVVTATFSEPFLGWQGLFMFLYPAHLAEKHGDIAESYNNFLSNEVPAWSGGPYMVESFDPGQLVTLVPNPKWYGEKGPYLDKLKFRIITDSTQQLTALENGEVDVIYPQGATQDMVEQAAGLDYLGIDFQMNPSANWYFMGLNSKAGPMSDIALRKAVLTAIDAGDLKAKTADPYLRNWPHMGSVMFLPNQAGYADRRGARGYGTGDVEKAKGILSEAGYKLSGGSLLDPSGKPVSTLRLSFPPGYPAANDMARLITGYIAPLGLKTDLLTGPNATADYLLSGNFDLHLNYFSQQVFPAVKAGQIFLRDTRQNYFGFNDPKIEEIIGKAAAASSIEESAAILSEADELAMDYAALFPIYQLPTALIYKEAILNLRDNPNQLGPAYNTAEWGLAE
Sequence of R56A EppA mutant (Q11H97 27-563, stated change not applied): as above
Sequence of R480A EppA mutant (Q11H97 27-563, stated change not applied): as above
T1 sequence (Q11H97 entry or part of it): as the sequence (Q11H97 27-563, stated change not applied) above
Sequence of K470A EppA mutant (Q11H97 27-563, stated change not applied): as above

Compound | binding by EppA (in words) ([1]; ITC, wild-type EppA) | ∆H [1, 7] | ∆S [1, 7] | Kd [1, 8] | ∆H [1] | ∆S [1] [cal mol^−1 K^−1] | other results
O=C([O-])CN(CCN(CC(=O)[O-])CC(=O)[O-])CC(=O)[O-].[Co+2] [CoEDTA] | did not bind | n.b. | n.b. | n.b. | – | – | –
O=C([O-])CN(CCN(CC(=O)[O-])CC(=O)[O-])CC(=O)[O-].[Cu+2] [CuEDTA] | did not bind | n.b. | n.b. | n.b. | – | – | –
O=C(O)CN(CCN(CC(=O)O)CC(=O)O)CC(=O)O.[Tb+3] [TbEDTA] | – | – | – | – | -0.751 ± 0.069 kcal/mol | 18.1 | –
O=C(O)CN(CCN(CC(=O)O)CC(=O)O)CC(=O)O.[Cr+3] [CrEDTA] | – | – | – | – | -2.573 ± 0.145 kcal/mol | 30.5 | –
O=C([O-])CN(CCOCCOCCN(CC(=O)O)CC(=O)O)CC(=O)[O-].[Ca+2] [CaEGTA] | not | n.b. | n.b. | n.b. | – | – | –
O=C([O-])CN(CCN(CC(=O)O)CC(=O)O)CC(=O)[O-].[Ba+2] [BaEDTA] | – | n.b. | n.b. | n.b. | – | – | –
O=C([O-])CN(CCN(CC(=O)[O-])CC(=O)[O-])CC(=O)[O-].[Fe+3] [FeEDTA] | did not bind | n.b. | n.b. | n.b. | – | – | –
O=C(O)CN(CCN(CC(=O)O)CC(=O)O)CC(=O)O.[Sr+2] [SrEDTA] | – | – | – | – | -4.392 ± 0.118 kcal/mol | 27.1 | –
O=C(O)CN(CCN(CC(=O)O)CC(=O)O)CC(=O)O.[Mg+2] [MgEDTA] | – | – | – | – | -4.028 ± 0.037 kcal/mol | 16.2 | –
O=C(O)CN(CCN(CC(=O)O)CC(=O)O)CC(=O)O.[Ca+2] [CaEDTA] | – | – | – | – | -2.917 ± 0.038 kcal/mol | 16.0 | binding by EppA (in words) [1]: bound
O=C(O)CN(CCOCCOCCN(CC(=O)O)CC(=O)O)CC(=O)O [EGTA, ethylene glycol-bis(β-aminoethylether)-N,N,N′,N′-tetraacetic acid, reference compound] | – | -4.340 kcal/mol and -4.34 ± 0.114 kcal/mol | 16.40 cal mol^−1 K^−1 and 16.4 cal mol^−1 K^−1 | – | – | – | –
O=C(O)CN(CCN(CC(=O)O)CC(=O)O)CC(=O)O [EDTA, ethylenediaminetetraacetate] | – | – | – | – | -2.283 kcal/mol and -2.283 ± 0.07 kcal/mol and -2.283 ± 0.070 kcal/mol | 29 | Kd ([1]; Kd, ITC, wild-type EppA, 25 °C, single replicate): 9.52 ± 6.25 nM; Kd ([1]; Kd, ITC, wild-type EppA, 25 °C, single-site model, single replicate, n.b. = no binding): 9.5 ± 6 nM; Kd [2]: 27.1 ± 20.2 nM; ∆H ([2]; ITC, K470A mutant, 25 °C): -1.872 kcal/mol and -1.872 ± 0.117 kcal/mol; ∆S ([2]; ITC, K470A mutant, 25 °C): 28.3 cal mol^−1 K^−1; reduction in EDTA binding ([2]; K470A vs wild-type EppA): 3 fold; Kd [3]: 161 ± 272 nM; ∆H ([3]; ITC, R56A mutant, 25 °C): -1.802 kcal/mol and -1.802 ± 0.147 kcal/mol; ∆S ([3]; ITC, R56A mutant, 25 °C): 25 cal mol^−1 K^−1; reduction in EDTA binding ([3]; R56A vs wild-type EppA): 17 fold; Kd [4]: 40.8 ± 26.5 nM; ∆H ([4]; ITC, R480A mutant, 25 °C): -1.138 kcal/mol and -1.138 ± 0.089 kcal/mol; ∆S ([4]; ITC, R480A mutant, 25 °C): 30 cal mol^−1 K^−1; reduction in EDTA binding ([4]; R480A vs wild-type EppA): 4 fold; Kd [5]: 249 ± 382 nM; ∆H ([5]; ITC, R74A mutant, 25 °C): -1.877 kcal/mol and -1.877 ± 0.195 kcal/mol; ∆S ([5]; ITC, R74A mutant, 25 °C): 23.9 cal mol^−1 K^−1; reduction in EDTA binding ([5]; R74A vs wild-type EppA): 26 fold; binding by EppA (in words) [6]: binds
O=C(O)CN(CCN(CC(=O)O)CC(=O)O)CC(=O)O.[Eu+3] [EuEDTA] | – | – | – | – | -3.943 ± 0.105 kcal/mol | 7.72 | –
Asp10: decameric polyaspartate (DDDDDDDDDD) [reference compound] | did not bind | n.b. | n.b. | n.b. ^c | – | – | –
O=C([O-])CN(CCN(CC(=O)[O-])CC(=O)[O-])CC(=O)[O-].[Ni+2] [NiEDTA] | did not bind | n.b. | n.b. | n.b. | – | – | –
O=C(O)CNCCNCC(=O)O [EDDA, ethylenediamine-N,N′-diacetate, reference compound] | – | – | – | – | -0.851 ± 0.893 kcal/mol | 26.7 | Kd ([1]; ITC, wild-type EppA, 25 °C, single-site model, single replicate, n.b. = no binding, read-out: Kd): 588 nM and 340 nM
O=C(O)CN(CCOCCOCCN(CC(=O)O)CC(=O)O)CC(=O)O.[Sr+2] [SrEGTA] | – | 0.794 ± 0.164 kcal/mol | 27.1 cal mol^−1 K^−1 | – | – | – | –
O=C(O)CN(CCN(CC(=O)O)CC(=O)O)CC(=O)O.[Zn] [ZnEDTA] | did not bind | n.b. | n.b. | n.b. | – | – | –
O=C(O)CN(CCN(CC(=O)O)CC(=O)O)CC(=O)O.[Cd+2] [CdEDTA] | did not bind | -0.555 ± 0.002 kcal/mol | 28.1 cal mol^−1 K^−1 | – | – | – | –
MnEDTA | did not bind | n.b. | n.b. | n.b. | – | – | –
